melting point [°C] | SMILES
93 to 94 | COC(=O)/C(=C/C=C/c1cc2ccccc2n1C)OC
84 to 86 | CC(C(=O)O)c1ccc(CC2CCCCC2=O)cc1 (stereo unspecified)
105 to 106 | CCOC(=O)C(=NOCc1ccc(OCc2nc(-c3ccccc3)oc2C)cc1)c1ccc(Br)cc1
134 to 135 | CNC1CCCN(c2c(F)cc3c(=O)c(C(=O)O)cn(C4CC4)c3c2OC)C1 (stereo unspecified)
112 to 113 | CCOC(=O)CC(NC(=O)c1ccc(Cl)cc1)C(=O)c1cccs1 (stereo unspecified)
200 to 201 | NS(=O)(=O)c1ccc(S(=O)(=O)c2ccc(OC(=O)c3cccnc3)cc2)s1
239 to 242 | C=CC12CCc3cc(O)ccc3C1CCC1(C)C(=O)CCC12 (stereo unspecified)
122 | Cc1cccc(C(O)CSC(=S)Nc2ccc(Cl)cn2)c1 (stereo unspecified)
53 to 54 | COc1ccc(OCC#N)c(SCC#N)c1
52 to 55 | COc1ccc(CNC(=S)N2C(=O)CC(c3ccc(OC)c(OC4CCCC4)c3)N2C)cc1 (stereo unspecified)
170 to 171 | Cc1cc(CCCCCOc2ccc(C3=NCCO3)cc2C(=O)O)on1
159 to 161 | CC(C)c1nc(COC(N)=O)n(CCOC(N)=O)c1Sc1cc(Cl)cc(Cl)c1
155 to 157 | Cc1c(C(=O)Nc2ccc(OCCCN3CCOCC3)c(C#N)c2)cnn1-c1ccc(Cl)cc1
168 to 172 | O=C(c1ccccc1SSc1ccccc1C(=O)N1CCC(O)C1)N1CCC(O)C1 (stereo unspecified)
133 to 135 | COc1ccc2[nH]c(CO)cc2c1C
168 to 170 | CCCC(=O)c1cnc2c(CO)cccc2c1Nc1ccc(F)cc1C
179 to 181 | Cc1c(C#N)oc2c(c1=O)COc1ccccc1-2
85 to 87 | CCCc1c(OCCCSc2nc3ccc(C(=O)O)cc3[nH]2)ccc(C(C)=O)c1OC(C)=O

melting point [°C] | SMILES
141 to 142 | CC1(c2oncc2C(=O)c2ccc(S(C)(=O)=O)cc2C(F)(F)F)CC1
153 to 155 | CC(=O)NCC1CC1c1ccc(Cl)c2nn(C)cc12 (stereo unspecified)
98.6 | COC(=O)c1cc(-c2ccc(C)cc2)n(Cc2ccc(Cl)c(Cl)c2)n1
138 | Cc1noc(C)c1-c1ccc(OC2SCC(O)C(O)C2O)cn1 (stereo unspecified)
152 to 155 | COc1cccc([C@H]2O[C@H](CC(=O)NCP(=O)(O)O)C(=O)N(CC(C)(C)C)c3ccc(Cl)cc32)c1OC
140 to 144 | Cn1ncnc1COc1nc2c(cc1C1CCC1)nnn2-c1c(F)cccc1F
199 to 200 | CC(=O)NCc1cccc(-c2nc(=O)c3ccccc3s2)n1
191 to 193 | COc1ccc(-c2cnc3c(-c4ccsc4)cnn3c2)cc1
130 to 132 | CC(=O)c1ccc2c(c1O)CC(O)CO2 (stereo unspecified)
73 to 80 | CCN(Cc1cc(Br)ccc1OCC1CC1)c1ccc(C(=O)O)nn1
217 to 219 | CC(=O)N1CCN(C(=O)Cn2c(-c3ccc(Cl)cc3)nc3cccnc32)CC1
152 to 154 | Cc1noc(NS(=O)(=O)c2ccc(N(C)C)cc2)c1C
167 to 168 | COc1ccc(-n2nc(NC(=O)N(C)C)cc2-c2ccc(OCCO)cc2)cc1
137 to 138 | CCOC(=O)CCCCCOc1ccc(C(=O)Nc2ccccc2Sc2ccccc2-c2nnn[nH]2)cc1
200 to 201 | COc1cc(C#N)ccc1Cc1cn(C)c2ccc([N+](=O)[O-])cc12
94 to 96 | OC1C(COC2CC2)OC(n2cnc3c(NCc4cccc(I)c4)nc(Cl)nc32)C1O (stereo unspecified)
228 | Cc1cccc(C)c1NC(=O)/C=C1\SCC(=O)N1c1ccccc1

Second part, the compound before the results:

SMILES | melting point [°C]
Cc1cc(-c2ccc(F)cc2)n(-c2ccc(S(N)(=O)=O)cc2)c1 | 168 to 170
CC(C)C(NC(=O)OCc1ccccn1)C(=O)NC(Cc1ccccc1)C(O)C(Cc1ccccc1)NC(=O)C(NC(=O)OCc1ccccn1)C(C)C (stereo unspecified) | 155 to 156
CC(c1ccc(N)cc1)n1ccnc1 (stereo unspecified) | 130
Cn1cc(-c2ccccc2)c(=O)c(-c2ccc(F)cc2Cl)c1 | 190 to 192
CCn1cc(C(=O)O)c(=O)c2cc3cc(F)c(N4CCNC(c5ccc(F)cc5)C4)cc3nc21 (racemic) | 298
O=C(Cn1nc2ccccc2n1)Nc1ccc(-n2nc(C(F)(F)F)cc2C2CC2)cc1 | 188 to 192
O=c1ncc(Br)cn1CCO | 177 to 179
COc1ccc(N2C(=O)c3ccc(Cl)cc3C2CC(=O)N2CCC3(CC2)OCCO3)cc1 (stereo unspecified) | 156 to 157
COc1cc2cc(Cc3ccccc3)c(C)cc2c(C(C)C)c1OC | 159 to 161
N#CC1=Nc2nc(C3CCCC3)[nH]c2C2=N[C@H](Cc3ccccc3)CN12 | 140 to 142
CN1C(=O)C(=CC(=O)O)SC1=Nc1ccc(Cl)c(Cl)c1 | 225 to 226
O=C1C=CC(O)(c2ccc3ccccc3c2)C=C1 | 137
CCc1nnc(CCc2ccc(NC(=O)/C=C/c3cnn(C)c3-c3ccc(F)cc3)cc2)o1 | 167 to 168
N#CC(Cc1c(Cl)cccc1Cl)C(=O)O (stereo unspecified) | 106 to 108
CC(C)[C@@H]1CC[C@@H](C)C[C@H]1O[C@@H]1OC(=O)[C@@H]2[C@H]1C2(C)C | 82
CS(=O)(=O)c1ccc(-c2cc(C(F)(F)F)nn2C2CCCCC2)cc1F | 228 to 229
O=c1cc(-c2ccccc2)sc2c1[nH]c1ccccc12 | 271 to 272
O=CCC1Cc2ccc(Br)cc2C1=O (racemic) | 84
CCN(C=O)c1ccccc1C(=O)COC(=O)c1ccccc1 | 78 to 80
Cc1ccccc1C(=O)Nc1ccc(C(=O)N2Cc3cccn3Cc3sccc32)cc1 | 162 to 188
Cc1coc(C)c1C(=O)OC1CC(C)(C)N(CC#N)C(C)(C)C1 | 156
COc1ccc(-n2c(=O)c3c(N4CCN(C)CC4)cc(Cl)cc3n(Cc3ccccc3)c2=O)cc1 | 155 to 158

SMILES | melting point [°C]
C(=C\c1ccoc1)/c1ccccc1 | 96
O=C(c1ccc(-c2cccs2)cc1)N1Cc2ccccc2Nc2ccccc21 | 114 to 116
O=C1CC(c2cccs2)=Nc2ccc(-c3ccc(=O)[nH]c3)cc2N1 | > 250
CC12CCC3C(CC=C4CC(C(=O)CBr)CCC43C)C1CCC2=O (stereo unspecified) | 150
O=C(O)c1ccc(Sc2ccc(C(=O)O)c(C(=O)O)c2)cc1C(=O)O | 202 to 203
CS(=O)(=O)N1CCC(NC(=O)Nc2ccc(OC(F)(F)F)cc2)CC1 | 233 to 234
CC(C)(C)C(NC(=O)c1ccccc1)Nc1c(Nc2cccnc2)c(=O)c1=O (stereo unspecified) | 246 to 247
CCCN1C(=O)c2ccccc2C1(O)c1ccc(F)cc1 (stereo unspecified) | 172 to 175
CC(=NNc1ccc(C(F)(F)F)cc1)C(=O)NCc1ccc(Cl)nc1 | 184
O=C(CN1C(=O)c2ccccc2C1=O)N1CCN(C(=O)c2cc(C(F)(F)F)cc(C(F)(F)F)c2)[C@H](Cc2c[nH]c3ccccc23)C1 | > 220
ClC1=NC(Cl)(C(Cl)(Cl)C(Cl)(Cl)Cl)N=C1Cl | 74 to 75
N#Cc1cc(Cn2cncn2)cc(-c2ccccc2)c1 | 109 to 110
C[C@]12CC[C@@H]3C4=C(CC[C@H]3[C@@H]1CCC21CC(O)CO1)CC(=O)CC4 (stereo partly specified) | 118 to 123
CCSC(=O)Cc1csc(N)n1 | 76 to 77
N#CCCN(CCC#N)CC(=O)O | 73
OC(CCCN1CC=C(c2ccccc2)CC1)c1ccc(Cc2ccc(Cl)cc2)cc1 (stereo unspecified) | 108 to 111
CN1CCc2c(c3ccccc3n2CCc2nc(-c3ccncc3)cs2)C1 | 158 to 160
Cc1nc2ccc3c(c2o1)OC(CN1CCC(n2c(=O)[nH]c4ccccc42)CC1)CO3 (stereo unspecified) | 218 to 220
O=C(c1ccccc1)c1cc([N+](=O)[O-])ccc1NC1CC1 | 125
O=C(CCC(F)(F)F)Nc1ccccc1 | 187
NC(=S)C1CCCc2c1ncc1c2CCCC1 (stereo unspecified) | 162
Cc1cc(Cl)nc(C#N)c1 | 133

SMILES | melting point [°C]
N=C(N)c1ccc(O)c(C(=O)c2ccccc2)c1 | 186 to 189
Cc1cc(Oc2cccc(C(F)(F)F)c2)nn1C(=O)Nc1ccccc1Cl | 84 to 86
CCOC(=O)c1c(OCC)cc(C(F)(F)F)nc1C(F)(F)F | 57 to 59
Nc1cc(-n2ncc(Cl)c(Cl)c2=O)c(F)cc1Cl | 186
COc1cc(CC#N)c(CCN)cc1OC | 78
CON=Cc1ccc2c(c1)ncn2-c1cccc(-c2ccncn2)c1 | 180 to 182
N#Cc1ccccc1-c1c(O)ccc2c3c(oc12)-c1cc(O)ccc1CC3 | 277 to 279
COc1ccc(S(=O)(=O)C2(C(=O)NO)CCN(C3CCCCCCC3)CC2)cc1 | > 200
CCCCCCCCCCc1csc2c1sc1c2sc2c3scc(CCCCCCCCCC)c3sc21 | 108
CC(C)(C)C(=O)SC[C@H](NC(=O)C(C)(C)SC(=O)C(C)(C)C)C(=O)O | 140 to 141
O=c1oc2cc(O)cc(O)c2c(O)c1C1c2ccccc2Oc2c1c(=O)oc1cc(O)cc(O)c21 (stereo unspecified) | > 300
O=C(O)C=CC=Cc1cc(O)c(O)cc1Cl | 203 to 206
O=C(CCl)Nc1ccc2c(c1NC(=O)c1cccs1)C(=O)c1ccccc1C2=O | 190 to 191
NC(=O)NC1CCCc2sc(Br)cc21 (stereo unspecified) | 206 to 210
CCCCCCCCCCOc1ccc(CO)cc1OCCCCCCCCCC | 41 to 42.5
COC(=O)C(C)(C)NC(=O)c1cc2c(n(CC3CCCCC3)c1=O)CCCCCC2 | 260 to 263
CCn1c(=O)c2c(nc(/C=C/c3ccc(OC)c(OC)c3OC)n2C)n(CC)c1=O | 153 to 154
CCOC(=O)c1ccccc1NC(=O)Nc1ccccc1I | 162 to 164
O=C(COc1ccccc1)N[C@@H](Cc1ccccc1)C(=O)CSCc1ccsc1 | 80 to 81
FC(F)(F)c1ccc(CN2CC=C(/C=C/c3ccccc3)CC2)cc1 | 125 to 127
COc1cc(C2CCN(CC(N)=O)CC2)ccc1Nc1ncc2ccc(-c3cccc(S(=O)(=O)NC(C)(C)C)c3)n2n1 | 250 to 252
COc1ccc(-c2cc(=Nc3c(C)cc(C)cc3C)n(C)c(N)n2)cc1OC | 192 to 195
